For experiment [1], the target named is T1, PDE3A catalytic domain (PDE3Acat) (Homo sapiens, UniProt Q14432).
T1 construct: made in house; host or cells: Sf9 insect cells (baculovirus, Bac-to-Bac / Gateway)
The experiment in a line: Phosphodiesterase inhibitory activity, PDE3 ([3H]cAMP, recombinant enzyme). The following applies: 30° C., 20 minutes, read-out: IC50(μmol/L) PDE3. It counts as biochemical.

A further experiment has as its target T2, PDE4Bcat (Homo sapiens, UniProt Q07343).
T2 construct: made in house; host or cells: Sf9 insect cells (baculovirus, Bac-to-Bac / Gateway)
Description: Phosphodiesterase inhibitory activity, PDE4 ([3H]cAMP, recombinant enzyme). It counts as biochemical. The following applies: 30° C., 20 minutes, read-out: IC50(μmol/L) PDE4.

pIC50: −log10 of the molar value.

T1 sequence (Q14432 674-1093 limits assumed): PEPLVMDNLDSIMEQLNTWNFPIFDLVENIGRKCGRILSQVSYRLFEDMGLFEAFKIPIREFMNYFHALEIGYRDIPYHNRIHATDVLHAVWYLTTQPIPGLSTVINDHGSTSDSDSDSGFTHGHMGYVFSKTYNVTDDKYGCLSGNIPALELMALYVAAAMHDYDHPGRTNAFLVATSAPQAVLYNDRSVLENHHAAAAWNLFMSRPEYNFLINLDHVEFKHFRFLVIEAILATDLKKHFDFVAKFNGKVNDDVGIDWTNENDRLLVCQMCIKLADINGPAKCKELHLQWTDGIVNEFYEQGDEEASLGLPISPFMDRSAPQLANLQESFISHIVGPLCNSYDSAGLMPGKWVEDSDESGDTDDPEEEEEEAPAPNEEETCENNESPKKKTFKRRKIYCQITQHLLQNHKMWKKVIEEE
T2 sequence (Q07343 330-659 limits assumed): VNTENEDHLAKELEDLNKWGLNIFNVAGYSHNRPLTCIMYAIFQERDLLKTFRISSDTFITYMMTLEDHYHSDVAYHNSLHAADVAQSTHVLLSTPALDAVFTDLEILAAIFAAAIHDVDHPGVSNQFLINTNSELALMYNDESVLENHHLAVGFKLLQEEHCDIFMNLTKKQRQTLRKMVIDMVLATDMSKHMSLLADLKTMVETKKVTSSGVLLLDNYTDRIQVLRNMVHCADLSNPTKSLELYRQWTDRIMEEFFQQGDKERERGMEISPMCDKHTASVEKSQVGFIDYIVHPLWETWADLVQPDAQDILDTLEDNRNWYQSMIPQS

`CCc1ccc2c(C3=NN(CCCCOc4ccc(C5=NNC(=O)CC5C)cc4)C(=O)CC3C)ccc(OC)c2n1` (single isomer, unassigned) [Example 341, 6-(2-Ethyl-8-methoxyquinolin-5-yl)-5-methyl-2-[4-[4-(4-methyl-6-oxo-1,4,5,6-tetrahydropyridazin-3-yl)phenoxy]butyl]-4,5-dihydro-2H-pyridazin-3-one]: the pIC50 is 5.00 to 6.00 in experiment [1] and more than 7.00 on PDE4Bcat.
The matching figures for `CCc1ccc2c(-c3ccc(=O)n(CCCCOc4ccc(C5=NNC(=O)CC5C)cc4F)n3)ccc(OC)c2n1` (single isomer, unassigned; (+)) [Example 328, (+)-6-(2-Ethyl-8-methoxyquinolin-5-yl)-2-[4-[2-fluoro-4-(4-methyl-6-oxo-1,4,5,6-tetrahydropyridazin-3-yl)phenoxy]butyl]-2H-pyridazin-3-one]: more than 7.00 and 6.00 to 7.00.
For the compound `CCc1ccc2c(-c3ccc(=O)n(CCCCOc4ccc(C5=NNC(=O)CC5C)cc4F)n3)ccc(OC)c2n1` (single isomer, unassigned; (-)) [Example 329, (−)-6-(2-Ethyl-8-methoxyquinolin-5-yl)-2-[4-[2-fluoro-4-(4-methyl-6-oxo-1,4,5,6-tetrahydropyridazin-3-yl)phenoxy]butyl]-2H-pyridazin-3-one], the pIC50 (in experiment [1]; on PDE4Bcat) was more than 7.00 each time.
For `COc1ccc(-c2ccc(=O)n(CCCCOc3ccc(C4=NNC(=O)CC4C)cc3)n2)c2ccc(C)nc12` (stereo not drawn) [Example 268, 6-(8-Methoxy-2-methylquinolin-5-yl)-2-[4-[4-(4-methyl-6-oxo-1,4,5,6-tetrahydropyridazin-3-yl)phenoxy]butyl]-2H-pyridazin-3-one], the pIC50 (in experiment [1]; on PDE4Bcat) was 6.00 to 7.00 in each case.
`COc1ccc(-c2ccc(=O)n(CCCCOc3ccc(C4=NNC(=O)CC4C)cc3)n2)c2ccc(C(C)C)nc12` (stereo not drawn) [Example 270, 6-(8-Methoxy-2-isopropylquinolin-5-yl)-2-[4-[4-(4-methyl-6-oxo-1,4,5,6-tetrahydropyridazin-3-yl)phenoxy]butyl]-2H-pyridazin-3-one]: the results for the pIC50 (in experiment [1]; on PDE4Bcat) were more than 7.00 and 6.00 to 7.00, respectively.
On to `COc1ccc(-c2ccc(=O)n(CCCCOc3ccc(C4=NNC(=O)CC4)c(F)c3F)n2)c2cc(C(F)(F)F)oc12` [Example 274, 2-[4-[2,3-Difluoro-4-(6-oxo-1,4,5,6-tetrahydropyridazin-3-yl)phenoxy]butyl]-6-(7-methoxy-2-trifluoromethylbenzofuran-4-yl)-2H-pyridazin-3-one], for which the pIC50 (in experiment [1]; at PDE4Bcat) was more than 7.00 throughout.
For the compound `COc1ccc(-c2ccc(=O)n(CCCCOc3ccc(C4=NNC(=O)C4(C)C)c(F)c3F)n2)c2cc(C(F)(F)F)oc12` [Example 275, 2-[4-[2,3-Difluoro-4-(4,4-dimethyl-5-oxo-4,5-dihydro-1H-pyrazol-3-yl)phenoxy]butyl]-6-(7-methoxy-2-trifluoromethylbenzofuran-4-yl)-2H-pyridazin-3-one], the pIC50 was more than 7.00 in experiment [1] and 6.00 to 7.00 at PDE4Bcat.
The like results for `COc1ccc(-c2ccc(=O)n(CCCCOc3ccc(C4=NNC(=O)CC4C)c(F)c3F)n2)c2cc(C(F)(F)F)oc12` (stereo not drawn) [Example 276, 2-[4-[2,3-Difluoro-4-(4-methyl-6-oxo-1,4,5,6-tetrahydropyridazin-3-yl)phenoxy]butyl]-6-(7-methoxy-2-trifluoromethylbenzofuran-4-yl)-2H-pyridazin-3-one] were, in that order, more than 7.00 and 6.00 to 7.00.
The matching figures for `CCc1ccc2c(-c3ccc(=O)n(CCCCOc4ccc(C5=NNC(=O)CC5C)cc4)n3)ccc(OC)c2n1` (stereo not drawn) [Example 280, 6-(2-ethyl-8-Methoxyquinolin-5-yl)-2-[4-[4-(4-methyl-6-oxo-1,4,5,6-tetrahydropyridazin-3-yl)phenoxy]butyl]-2H-pyridazin-3-one]: more than 7.00 and 6.00 to 7.00.

The record behind these values is patent publication US20100160335A1, “PYRIDAZINONE DERIVATIVE AND PDE INHIBITOR CONTAINING THE SAME AS ACTIVE INGREDIENT” (KYORIN PHARMACEUTICAL CO., LTD., priority 2007, published 2010).
